Measured values: ChEMBL document CHEMBL3784990, “Synthesis and in vitro anticancer evaluation of some 4,6-diamino-1,3,5-triazine-2-carbohydrazides as Rad6 ubiquitin conjugating enzyme inhibitors” (Bioorg Med Chem Lett, 2016)
Activity calls are given as the source filed them. The rule behind the calls is not given here.

Key:
[1] = target: Ubiquitin-conjugating enzyme E2 B (Homo sapiens) (UniProt P63146); assay: Inhibition of human recombinant Rad6B assessed as suppression of H2A substrate ubiquitination at 25 nM pre-incubated for 1 hr before H2A addition by Western blot analysis
Chain of Ubiquitin-conjugating enzyme E2 B (Homo sapiens) (P63146 whole entry): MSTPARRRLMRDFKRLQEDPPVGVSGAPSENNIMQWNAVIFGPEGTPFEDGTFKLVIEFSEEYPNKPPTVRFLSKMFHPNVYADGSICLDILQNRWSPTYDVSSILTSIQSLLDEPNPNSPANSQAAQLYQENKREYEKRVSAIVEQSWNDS

MCF7 = assay: Cytotoxicity against human MCF7 cells after 72 hrs by MTS assay; type: functional, cell-based; conditions: MCF7, 72 h
A2780 = assay: Cytotoxicity against human A2780 cells after 72 hrs by MTS assay; type: functional, cell-based; conditions: A2780, 72 h
MDA-MB-231 = assay: Cytotoxicity against human MDA-MB-231 cells after 72 hrs by MTS assay; type: functional, cell-based; conditions: MDA-MB-231, 72 h
[2] = Cytotoxicity against human OV90 cells after 72 hrs by MTS assay; type: functional, cell-based; conditions: OV-90, 72 h
[3] = target: Ubiquitin-conjugating enzyme E2 B (Homo sapiens) (UniProt P63146); assay: Inhibition of human recombinant Rad6B assessed as suppression of Rad6B conjugation to ubiquitin at 25 nM pre-incubated for 1 hr by Western blot analysis
[4] = Cytotoxicity against human H1299 cells after 72 hrs by MTS assay; type: functional, cell-based; conditions: NCI-H1299, 72 h
A549 = assay: Cytotoxicity against human A549 cells after 72 hrs by MTS assay; type: functional, cell-based; conditions: A549, 72 h
HT-29 = assay: Cytotoxicity against human HT-29 cells after 72 hrs by MTS assay; type: functional, cell-based; conditions: HT-29, 72 h

inhibition [1]	inhibition [3]	Compound	IC50 (MCF7)	IC50 (A2780)	IC50 (MDA-MB-231)	IC50 [2]	IC50 [4]	IC50 (A549)	IC50 (HT-29)
Active	Active	Cc1ccc(Nc2nc(Nc3ccc(C)cc3)nc(C(=O)NNc3ccccc3)n2)cc1	4.2 µM	3.6 µM	3.5 µM	5 µM	22 µM	11.6 µM	5.2 µM
Active	Active	Nc1nc(COC(=O)c2ccc([N+](=O)[O-])cc2)nc(Nc2ccccc2)n1	5 µM	7.8 µM	4.6 µM	60 µM	45 µM	7.2 µM	8.3 µM
Active	Active	O=C(NNc1ccccc1)c1nc(Nc2ccccc2)nc(Nc2ccccc2)n1	6 µM	7.1 µM	2.5 µM	8 µM	11 µM	14.6 µM	9.5 µM
Active	Active	O=C(NNc1ccccc1)c1nc(Nc2ccc(Cl)cc2)nc(Nc2ccc(Cl)cc2)n1	4.2 µM	8.2 µM	3.5 µM	60 µM	15 µM	7.8 µM	4.1 µM
–	Active	COc1ccccc1Nc1nc(N)nc(C(=O)NN)n1	11.8 µM	5.6 µM	15.7 µM	90 µM	50 µM	7.5 µM	8.6 µM
–	Active	NNC(=O)c1nc(N)nc(Nc2ccc(Cl)cc2)n1	8.8 µM	36.6 µM	24.6 µM	85 µM	30 µM	7.5 µM	4.6 µM
–	Active	COc1ccccc1Nc1nc(Nc2ccccc2OC)nc(C(=O)NNc2ccccc2)n1	7.2 µM	5 µM	3.9 µM	10 µM	26 µM	6.9 µM	8.9 µM
–	Active	NNC(=O)c1nc(N)nc(Nc2ccccc2)n1	5.9 µM	7.3 µM	2.6 µM	75 µM	65 µM	7.8 µM	3.3 µM
Active	Active	COc1ccc(Nc2nc(Nc3ccc(OC)cc3)nc(C(=O)NNc3ccccc3)n2)cc1	7.2 µM	6.3 µM	4.2 µM	12 µM	5 µM	10.8 µM	5.8 µM
–	Active	Cc1ccc(Nc2nc(N)nc(C(=O)NN)n2)cc1	16 µM	5.5 µM	12.7 µM	60 µM	40 µM	9.3 µM	4.5 µM
–	Active	COc1ccc(Nc2nc(N)nc(C(=O)NN)n2)cc1	6.2 µM	14.7 µM	7.6 µM	80 µM	65 µM	5.2 µM	5.4 µM
